# From patent publication US20180312473A1, “PHENAZINE DERIVATIVES AS ANTIMICROBIAL AGENTS” (priority 2015, published 2018)
# Several values for one entry are separate records, joined by “and”; a condition that tells them apart may be missing. Equal entries are not always repeated. Where two headings read alike, the source gives them in different places. Marks after values point to notes of the source that are not given here.
# Legend:
# [1] = test system: MRSA-1 (methicillin-resistant Staphylococcus aureus clinical isolate); experiment: MIC assay (broth microdilution, CLSI); type: cell-based; conditions: Staphylococcus aureus, MRSA, read-out: MIC, MRSA-1
# [2] = test system: Staphylococcus epidermidis (ATCC 35984), MRSE; experiment: MIC assay (broth microdilution, CLSI); type: cell-based; conditions: Staphylococcus epidermidis
# [3] = test system: Enterococcus faecium (ATCC 700221), VRE; experiment: MIC assay (broth microdilution, CLSI); type: cell-based
# [4] = test system: M. tuberculosis H37Ra (ATCC 25177); experiment: Mycobacterium tuberculosis MIC assay; type: cell-based
# Outline: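 Culture diluted to OD600 0.01 and exposed to compounds in 0.5% final DMSO, each compound tested in three rows. Growth read as OD600 absorbance. Data from three independent experiments.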
# human red blood cells = experiment: Hemolysis assay with red blood cells; conditions: human, 1 h, 200 μM, pH 7.2
# Outline: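 Washed human red blood cells exposed to compounds added from DMSO stocks, 1 h at 37° C.; supernatant OD read at 405 nm after centrifugation. % hemolysis calculated relative to DMSO (0%) and Triton X (100%) controls, from three independent experiments.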
# [5] = test system: MRSE (S. epidermidis ATCC 35984) planktonic cells and biofilms; experiment: Calgary Biofilm Device (CBD) assay, MBC/MBEC; type: cell-based, Staphylococcus epidermidis; conditions: for MBC: Staphylococcus epidermidis
# [6] = test system: VRE (E. faecium ATCC 700221) planktonic cells and biofilms; experiment: Calgary Biofilm Device (CBD) assay, MBC/MBEC; type: cell-based, Enterococcus faecium; conditions: for MBC: Enterococcus
# A. baumannii 19606 = experiment: MIC assay (broth microdilution, CLSI); type: cell-based, Acinetobacter baumannii; conditions: Acinetobacter baumannii, 19606; read-out: A. baumannii 19606 MIC
# [7] = Spectrophotometric determination of dissociation constants (pKa); type: physicochemical; conditions: UV-vis at varying pH, 1:1 water:methanol buffers
# Description: Dissociation constants (pKa) for select analogues were determined by implementing UV-vis spectroscopy at varying pH values. Buffers were prepared using potassium phosphate monobasic (KH2PO4) and sodium phosphate dibasic (Na2HPO4) in a 1:1 solution of water:methanol to achieve a pH range of 3.78 to 10.94. Compounds were added from 10 mM stock solutions in dimethyl sulfoxide (12.5 μL) to 987.5 μL of each buffer to yield a final compound concentration of 125 μM. Full spectral scans were performed for each evaluated analogue at pH 3.78 and pH 10.94 from 300 to 800 nm to determine λmax values for the protonated phenol (HA; e.g., HP 2 below) and the deprotonated phenolate species (A^−; e.g., conjugate base of HP 2 below). The change in absorption at each determined λmax in relation to pH was then monitored in each buffer and then plotted as absorbance versus pH for each species. The pKa was first estimated by determining the pH of the point of intersection of the two linear curves as shown. The visual estimation was confirmed by plotting pH versus log [A^−/HA]. The resulting plot yielded a linear regression line with a Y-intercept corresponding to a calculated pKa value.
# [8] = test system: methicillin-resistant S. aureus (MRSA) strains; experiment: MIC assay, values summarised over MRSA strains; type: cell-based, Staphylococcus aureus
# MRSA BAA-1707 = experiment: MIC assay (broth microdilution, CLSI); conditions: Staphylococcus aureus, read-out: MIC, MRSA BAA-1707
# [9] = test system: S. aureus clinical isolate SA 138; experiment: MIC assay (broth microdilution, CLSI); conditions: Staphylococcus aureus, read-out: MIC, SA 138
# [10] = test system: MRSA BAA-44 planktonic cells and biofilms; experiment: Calgary Biofilm Device (CBD) assay, MBC/MBEC; conditions: Staphylococcus aureus, read-out: MRSA BAA-44 MBC
# [11] = Table 2B, b lowest concentration tested
# [12] = Table 2B, read-out: MIC, Staphylococcus epidermidis (ATCC 35984)
# [13] = Table 7, read-out: MIC, MRSE 35984
# [14] = Table 7, b lowest concentration tested, read-out: MIC, VRE 700221
# [15] = Mycobacterium tuberculosis, Table 7, read-out: MIC, M. tuberculosis H37Ra
# [16] = Table 8, read-out: MRSE 35984 MBC
SMILES,"MIC [1, 11] [µM]",MIC ([1]; Table 11) [µM],"MIC [2, 12] [µM]","MIC [2, 13] [µM]","MIC [3, 14] [µM]","MIC [4, 15] [µM]",% Hemolysis (200 μM) (human red blood cells) [%],% Hemolysis at 200 μM (human red blood cells) [%],"MBC ([5]; Table 5, read-out: MRSE MBC) [µM]","MBC [5, 16] [µM]",MIC (A. baumannii 19606) [µM],pKa [7],MIC (MRSA BAA-1707) [µM],MIC [9] [µM],MBC [10] [µM],other results
"Oc1ccc(I)c2nc3cc(Cl)c(Cl)cc3nc12 [Compound 12, 7,8-Dichloro-4-iodo-1-hydroxyphenazine]",0.2,0.3,0.78,0.78,3.13,3.13,1.4,1.4,9.38,9.38,> 100,7.70,0.15,0.59,75,"MIC ([2]; Table 2A, read-out: MIC, Staphylococcus epidermidis (ATCC 35984)): 0.78 µM; MIC ([3]; Enterococcus faecium, read-out: MIC, Enterococcus faecium (ATCC 700221), Table 2B, b lowest concentration tested): 3.13 µM; MIC ([3]; read-out: MIC, VRE 700221, Table 7, b lowest concentration tested): 3.13 to 6.25 µM; MIC ([4]; Mycobacterium tuberculosis, 168 h, read-out: Mtb MIC): 3.13 µM; MIC ([4]; Mycobacterium tuberculosis, read-out: MIC, M. tuberculosis): ~1 µg/mL; MRSE MBEC ([5]; Table 5): 75 µM; MBC ([6]; read-out: VRE 700221 MBC): 3.13 µM; MIC ([8]; Staphylococcus aureus, MRSA, range over the MRSA strains/isolates tested, read-out: MIC against MRSA strains): 0.15 to 0.59 µM"
"Oc1c(Br)cc(I)c2nc3cc(Cl)c(Cl)cc3nc12 [Compound 14, 2-bromo-7,8-dichloro-4-iodo-1-hydroxyphenazine]",0.1,0.1,3.13,3.13,0.1,12.5,2.7,2.7,1.56,1.56,> 100,6.95,0.3,0.59,12.5,"MIC ([3]; Enterococcus faecium, Table 2A, read-out: MIC, Enterococcus faecium (ATCC 700221)): < 0.1 µM; MIC ([3]; Enterococcus faecium, Table 2B, b lowest concentration tested, read-out: MIC, Enterococcus faecium (ATCC 700221)): 0.1 µM; MIC, VRE 700221 ([3]; Table 7, b lowest concentration tested): 0.10^b μM; MIC ([3]; read-out: MIC, VRE): 0.05 µg/mL; MIC ([4]; Mycobacterium tuberculosis, 168 h, M. tuberculosis H37Ra, 7 days, read-out: Mtb MIC): 12.5 µM; MIC ([4]; Table 7, read-out: MIC, M. tuberculosis H37Ra): 12.5 µM; MRSE MBEC ([5]; Table 5, listed as 214): 1.56 μM and 1.56/1.56 μM; MBC ([6]; Table 5, c lowest concentration tested, read-out: VRE MBC): 0.2 µM; MBC ([6]; Table 8, c lowest concentration tested, read-out: VRE 700221 MBC): 0.2 µM; VRE MBEC ([6]; Table 5, c lowest concentration tested, listed as 214): 0.20 μM and 0.20^c/0.20^c μM; growth inhibition activity against at least one MRSA strain [8]: sub-micromolar"
